According to ChEMBL document CHEMBL1201862, “PubChem BioAssay data set” (2004):
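Grown in 96-well plates, cells were treated for 48 hours with each compound at five concentrations. Insufficient inhibition: endpoint recorded as highest concentration tested. The concentration for 50% growth inhibition is given as GI50.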 Calls of active or inactive are those of the source. No stated cut-off is given here; in the data, active = GI50 up to about 1.1 µM and inactive = higher.

Columns and labels:
Assay in all cases: NCI anticancer screen, dose series, 48 h
HCT-116 = test system: HCT-116
SW-620 = test system: SW-620
UACC-257 = test system: UACC-257
SF-268 = test system: SF-268
KM12 = test system: KM12
OVCAR-4 = test system: OVCAR-4
OVCAR-3 = test system: OVCAR-3
A549 = test system: A549
NCI-H23 = test system: NCI-H23
MOLT-4 = test system: MOLT-4
CAKI-1 = test system: CAKI-1
SK-MEL-28 = test system: SK-MEL-28
NCI-H460 = test system: NCI-H460
SK-MEL-2 = test system: SK-MEL-2
HCC 2998 = test system: HCC 2998
RPMI-8226 = test system: RPMI-8226
SR = test system: SR

Row | SMILES | GI50 (HCT-116) | GI50 (SW-620) | GI50 (UACC-257) | GI50 (SF-268) | GI50 (KM12) | GI50 (OVCAR-4) | GI50 (OVCAR-3) | GI50 (A549) | GI50 (NCI-H23) | GI50 (MOLT-4) | GI50 (CAKI-1) | GI50 (SK-MEL-28) | GI50 (NCI-H460) | GI50 (SK-MEL-2) | GI50 (HCC 2998) | GI50 (RPMI-8226) | GI50 (SR)
1 | CCN1CCC(O)(/C=C/c2ccccc2)C(C(=O)/C=C/c2ccccc2)C1 (stereo not drawn) | 1.63 µM (inactive) | 1.69 µM (inactive) | 1.98 µM (inactive) | 2.54 µM (inactive) | 1.8 µM (inactive) | 3.27 µM (inactive) | 3.1 µM (inactive) | 4.86 µM (inactive) | 2.93 µM (inactive) | 2.21 µM (inactive) | 2.71 µM (inactive) | 1.89 µM (inactive) | 1.95 µM (inactive) | 2.65 µM (inactive) | 1.96 µM (inactive) |  | 
2 | O=C(Nc1ccccc1SC(/C=C/NNC1=NN=C(c2ccccc2)C(c2ccccc2)N1)c1ccccc1)c1ccc(Cl)cc1Cl (stereo not drawn) |  | > 100 µM (inactive) | > 100 µM (inactive) | 35.6 µM (inactive) | 38.1 µM (inactive) | 35.9 µM (inactive) | 44.5 µM (inactive) | 38.9 µM (inactive) | 22.8 µM (inactive) | > 10 µM (inactive) |  | 38.8 µM (inactive) | 42.7 µM (inactive) | 20.9 µM (inactive) | 47 µM (inactive) | 58.6 µM (inactive) | 
3 | COC(=O)C1C(=O)O[C@@H](c2ccc(OC)cc2OC)C1C(=O)OC (stereo partly drawn) | > 100 µM (inactive) | > 100 µM (inactive) | > 100 µM (inactive) | > 100 µM (inactive) | > 100 µM (inactive) | > 100 µM (inactive) | > 100 µM (inactive) | > 100 µM (inactive) | > 100 µM (inactive) | > 100 µM (inactive) | > 100 µM (inactive) | > 100 µM (inactive) | > 100 µM (inactive) |  | > 100 µM (inactive) | > 100 µM (inactive) | > 100 µM (inactive)
4 | COC(=O)c1ccc(/C=C/S(=O)(=O)c2ccccc2)cc1 | > 100 µM (inactive) | > 100 µM (inactive) | > 100 µM (inactive) | > 100 µM (inactive) | > 100 µM (inactive) | > 100 µM (inactive) | > 100 µM (inactive) | > 100 µM (inactive) | > 100 µM (inactive) | > 100 µM (inactive) | > 100 µM (inactive) | 44.9 µM (inactive) | > 100 µM (inactive) | > 100 µM (inactive) |  | > 100 µM (inactive) | 
5 | CCC1(CN(C)C)CC/C(=C\c2ccc3c(c2)OCO3)C1=O (stereo not drawn) | > 100 µM (inactive) | > 100 µM (inactive) | > 100 µM (inactive) | > 100 µM (inactive) | > 100 µM (inactive) | > 100 µM (inactive) | > 100 µM (inactive) | > 100 µM (inactive) | > 100 µM (inactive) | > 100 µM (inactive) | > 100 µM (inactive) | > 100 µM (inactive) |  | > 100 µM (inactive) | > 100 µM (inactive) | 40.7 µM (inactive) | 
6 | Cc1cc(NS(=O)(=O)c2ccc(Nc3c4ccccc4nc4c(C(=O)NCCN(C)C)cccc34)cc2)no1 | 4.79 µM (inactive) | 2.52 µM (inactive) |  | 1.78 µM (inactive) | 9.25 µM (inactive) | 10.7 µM (inactive) |  | 3.29 µM (inactive) | 4.46 µM (inactive) | 0.208 µM (active) |  | 10.9 µM (inactive) | 0.685 µM (active) | 6.43 µM (inactive) | 3.87 µM (inactive) |  | 0.272 µM (active)
7 | CCc1c(-c2coc(CC/C(C)=C/c3ccccc3)n2)oc(OC)c(C)c1=O | 19 µM (inactive) | 9.25 µM (inactive) | > 100 µM (inactive) | > 100 µM (inactive) | 78.9 µM (inactive) | > 39 µM (inactive) | 45.2 µM (inactive) |  |  | 10.9 µM (inactive) | > 52.2 µM (inactive) | > 100 µM (inactive) | 18.7 µM (inactive) | 60.1 µM (inactive) | 78.7 µM (inactive) | 11.7 µM (inactive) | < 0.01 µM (active)
8 | Cc1ccc(C2[C@H]3C(=O)N(c4ccc(Cc5ccc(N6C(=O)[C@@H]7ON(c8ccccc8)C(c8ccc(C)cc8)[C@@H]7C6=O)cc5)cc4)C(=O)[C@H]3ON2c2ccccc2)cc1 (stereo partly drawn) |  | > 100 µM (inactive) | > 100 µM (inactive) | > 100 µM (inactive) | > 100 µM (inactive) | > 100 µM (inactive) | > 100 µM (inactive) | > 100 µM (inactive) | > 100 µM (inactive) | > 100 µM (inactive) | > 100 µM (inactive) | > 100 µM (inactive) | > 100 µM (inactive) | > 100 µM (inactive) | > 100 µM (inactive) | > 100 µM (inactive) | 
9 | CCC(CC)NC1=C(NC(C)=O)C(=O)c2ccccc2C1=O | > 50 µM (inactive) | > 50 µM (inactive) | > 50 µM (inactive) | > 50 µM (inactive) | > 50 µM (inactive) | > 50 µM (inactive) | > 50 µM (inactive) | > 50 µM (inactive) | > 50 µM (inactive) | > 50 µM (inactive) |  | > 50 µM (inactive) | > 50 µM (inactive) | > 50 µM (inactive) | > 50 µM (inactive) |  | > 50 µM (inactive)
10 | O=C1c2ccccc2C(=O)N1CCN(CCN1C(=O)c2ccccc2C1=O)Cn1cccn1 | 17.8 µM (inactive) | 41.8 µM (inactive) | > 100 µM (inactive) | > 100 µM (inactive) | > 100 µM (inactive) | > 100 µM (inactive) | > 100 µM (inactive) | > 100 µM (inactive) |  | > 100 µM (inactive) | > 100 µM (inactive) | 73.8 µM (inactive) | 84.3 µM (inactive) | > 100 µM (inactive) | > 100 µM (inactive) | 29.2 µM (inactive) | 
11 | CC(=O)Nc1ccc(C2C(C(=O)Nc3ccccc3C)=C(C)NC(C)=C2C(=O)Nc2ccccc2C)cc1 | > 100 µM (inactive) | > 100 µM (inactive) | 96.6 µM (inactive) | > 100 µM (inactive) | > 31.6 µM (inactive) | > 100 µM (inactive) | > 100 µM (inactive) | > 100 µM (inactive) | > 100 µM (inactive) |  | > 100 µM (inactive) | > 100 µM (inactive) | > 100 µM (inactive) | > 100 µM (inactive) | > 100 µM (inactive) | > 100 µM (inactive) | 20.1 µM (inactive)
12 | CC1C=C[C@H](Sc2ccccc2)CC[C@@]1(C)O (stereo partly drawn) | 97.3 µM (inactive) | > 100 µM (inactive) | > 100 µM (inactive) |  |  |  |  | > 100 µM (inactive) | 70.5 µM (inactive) | 35.1 µM (inactive) | > 100 µM (inactive) | > 100 µM (inactive) | > 100 µM (inactive) | > 100 µM (inactive) | > 100 µM (inactive) | 57.3 µM (inactive) | 
13 | Cc1ccc(S(=O)(=O)NC2(C=O)CCCC3CCCCC32)cc1 (stereo not drawn) | > 100 µM (inactive) | > 100 µM (inactive) | > 100 µM (inactive) | > 100 µM (inactive) | > 100 µM (inactive) | > 100 µM (inactive) | > 100 µM (inactive) | > 100 µM (inactive) |  | > 100 µM (inactive) | > 100 µM (inactive) | > 100 µM (inactive) | > 100 µM (inactive) | > 100 µM (inactive) | > 100 µM (inactive) | > 100 µM (inactive) | > 100 µM (inactive)
14 | COC(=O)c1ccc2n[se]nc2c1 | > 100 µM (inactive) | > 100 µM (inactive) | > 100 µM (inactive) | > 100 µM (inactive) | > 100 µM (inactive) | > 100 µM (inactive) |  | > 100 µM (inactive) | > 100 µM (inactive) | > 100 µM (inactive) | > 100 µM (inactive) | > 100 µM (inactive) | > 100 µM (inactive) | > 100 µM (inactive) | > 100 µM (inactive) | > 100 µM (inactive) | > 100 µM (inactive)
15 | CC(=O)O[C@]12CCCCC1C1(O)C(O)CCCC[C@H]12 (stereo partly drawn) | > 100 µM (inactive) | > 100 µM (inactive) | > 100 µM (inactive) | > 100 µM (inactive) | > 100 µM (inactive) | > 100 µM (inactive) |  | > 100 µM (inactive) | > 100 µM (inactive) | > 100 µM (inactive) |  | > 100 µM (inactive) | > 100 µM (inactive) | > 100 µM (inactive) |  | > 100 µM (inactive) | > 100 µM (inactive)
16 | COC(=O)C1[C@@H](C(=O)OC)C12C=Cc1ccccc1C=C2 (stereo partly drawn) | > 100 µM (inactive) | > 100 µM (inactive) | > 100 µM (inactive) | > 100 µM (inactive) | > 100 µM (inactive) |  | > 100 µM (inactive) | > 100 µM (inactive) | > 100 µM (inactive) | > 100 µM (inactive) |  | > 100 µM (inactive) | > 100 µM (inactive) | > 100 µM (inactive) | > 100 µM (inactive) | > 100 µM (inactive) | > 100 µM (inactive)
17 | CCOc1ccc2c(c1)[n+]([O-])c(-c1nc3ccccc3s1)c(N)[n+]2[O-] |  | 86.7 µM (inactive) | 42.1 µM (inactive) | 32.1 µM (inactive) | 60.7 µM (inactive) | 65.5 µM (inactive) | 38.4 µM (inactive) | 61.8 µM (inactive) | 25.6 µM (inactive) | 36.7 µM (inactive) | 83.4 µM (inactive) | 38.7 µM (inactive) | 58.7 µM (inactive) | 52.8 µM (inactive) | 96.6 µM (inactive) | 44.3 µM (inactive) | 
18 | CCOC(=O)/C(=C/c1ccc(N(C)C)cc1)N(CC)CC | 48.1 µM (inactive) | 44 µM (inactive) | 35.8 µM (inactive) | 76.6 µM (inactive) | 79.8 µM (inactive) | 73.1 µM (inactive) | 24.5 µM (inactive) | 48.1 µM (inactive) | 49.4 µM (inactive) | 32.2 µM (inactive) | > 100 µM (inactive) | > 100 µM (inactive) |  | 58.2 µM (inactive) | > 100 µM (inactive) | 26.1 µM (inactive) | 48.6 µM (inactive)
